Data as given in patent US12576169B2, “Silicon-fluoride acceptor substituted radiopharmaceuticals and precursors thereof” (Technische Universität München, priority 2019, dated 2026).
Read-outs that look alike come from different tables or passages of the source.

Tests used:
HSA = HSA (Homo sapiens, UniProt P02768); details: cited from earlier work; for Lit. HSA binding: literature values (Yamazaki, Kanaoka 2004); for Log K HSA: logarithmic K of HSA binding literature values
[1] = n-Octanol-PBS partition coefficient (logD7.4); assay type: physicochemical; details: 18F-labeled ligand; n-octanol/PBS pH=7.4; mean ± SD (n = 5)
Procedure: Approx. 0.5 MBq of the ^18F-labeled SiFA-PSMA ligand were added into a test tube containing n-octanol (500 μL) and PBS (500 μL, pH=7.4). After vigorously shaking the two-phase mixture for 3 min at rt, the test tube was centrifuged at 9.000 rpm for 5 min to achieve quantitative phase separation. Finally, 150 μL of each layer were pipetted off and measured for activity using a gamma counter. After repeating the experiment for at least five times, the n-octanol-PBS partition coefficient log D7.4 was calculated according to following formula.

LNCaP cells = experiment: Internalization of 18F-labeled ligands into LNCaP cells; assay type: cell-based, human; details: internalized activity at 1 h in % of reference [125I]XII; c = 0.5 nM; LNCaP cells (125.000 cells/well); 37° C., DMEM/F-12 add. 5% BSA; corrected for non-specific binding (10 μm PMPA); mean ± SD (n = 3)
Procedure: LNCaP cells were grown in DMEM/F-12 (add. 10% FCS, v/v) and maintained at 37° C. in a humidified 5% CO2 atmosphere. […] Subsequent to the removal of the culture medium, cells were washed with DMEM-F12 (add. 5% BSA, v/v, 500 μL) and left to equilibrate in DMEM-F12 (add. 5% BSA, v/v, 200 μL) at 37° C. for 15 min. Each well was treated with either DMEM-F12 (add. 5% BSA, v/v, 25 μL) or a 2-(phosphonomethyl)-pentandioic acid (PMPA) solution (100 μM in PBS, 25 μL) for blockade. Afterwards, the ^18F-labeled SiFA-PSMA ligand (5 nM in PBS, 25 μL) was added and the cells were incubated for 1 h at 37° C. The experiment was terminated by placing the 24-well plate on ice for 3 min and removal of the assay medium. Each well was rinsed with HBSS (4° C., 250 μL) and the fractions were combined with the previous assay medium, representing the amount of unbound radioligand. For removal of surface bound activity, LNCaP cells were incubated with PMPA solution (10 μM in PBS, 4° C., 250 μL) for 5 min and rinsed again with PBS (250 μL, 4° C.). The internalized activity was determined by incubation of LNCaP cells with 1 M aq. NaOH (250 μL) for at least 10 min and combination with the fraction of a subsequent wash step with 1 M aq. NaOH (200 μL). Each experiment (control and blockade) was performed in triplicate. […] All internalization studies were accompanied by reference studies using the reference compound XII (2 nM in HBSS add. 1% BSA, v/v), which were performed analogously. Data were corrected for non-specific internalization and normalized to the specific-internalization observed for the radioiodinated reference compound.

[2] = target: T1, human serum albumin (HSA) (Homo sapiens, UniProt P02768); experiment: Binding to HSA on a Chiralpak HSA column; assay type: in vitro ADME; details: calibration with nine reference substances
T1 construct: purchased H13H-2433
Procedure: For the determination of human serum albumin (HSA) binding, a Chiralpak HSA column (50×3 mm, 5 μm, H13H-2433) was used at a constant flow rate of 0.5 mL/min. The mobile phase composed of a 50 mM NH4OAc solution in water with pH=7 (solvent C) and isopropanol (solvent D) was freshly prepared for each experiment and used only once. The reference substances (Table 1) as well as the analyzed SiFA-PSMA ligands were dissolved in a mixture of solvent C/solvent D (1:1, v/v, 0.5 mg/mL) and eluted from the HSA column (0-3 min: 100% C, 3-20 min: 20% D in C, λ=254 nm). The column was kept at rt and each run was stopped after detection of the signal to reduce the acquisition time. The nine reference substances display an HSA binding range of 13% to 99% and were injected consecutively in order to establish a sigmoidal calibration curve with the software OriginPro 2018b (FIG. 1).

PSMA [3] = target: T2, PSMA (Homo sapiens, UniProt Q04609); experiment: IC50 determination: PSMA binding affinity, competition with [125I]XII on LNCaP cells
Procedure: LNCaP cells were grown in Dulbecco's Modified Eagle Medium/Nutrient Mixture F-12 (DMEM/F-12, add. 10% fetal calf serum (FCS), v/v) and maintained at 37° C. in a humidified 5% CO2 atmosphere. […] After removal of the culture medium, LNCaP cells were treated with HBSS (add. 1% BSA, v/v, 4° C., 500 μL) and subsequently left 15 min on ice for equilibration in HBSS (add. 1% BSA, v/v, 4° C., 200 μL). […] For the control series, HBSS (add. 1% BSA, v/v, 25 μL) was used instead of the SiFA-PSMA ligand solution. Each concentration and the control were prepared in triplicate. After 1 h incubation on ice, the assay medium was removed and cells were washed with HBSS (200 μL, 4° C.). […] NaOH (200 μL) for at least 10 min and the resulting cell lysate was removed. The wells were treated again with 1 M aq. […] The experiment was repeated for at least three times and the IC50 value calculated using the GraphPad PRISM 8.0.2 software (Graphpad Software Inc., La Jolla, United States).

[4] = radiolabeled established inhibitors; literature; cited from earlier work
PSMA [5] = target: T2, PSMA; details: PSMA binding affinity; literature; cited from earlier work
PSMA [6] = target: T2, PSMA; details: after 1 h; literature; cited from earlier work
[7] = Wangler et al. 2010; cited from earlier work

T2 sequence (Q04609 whole entry): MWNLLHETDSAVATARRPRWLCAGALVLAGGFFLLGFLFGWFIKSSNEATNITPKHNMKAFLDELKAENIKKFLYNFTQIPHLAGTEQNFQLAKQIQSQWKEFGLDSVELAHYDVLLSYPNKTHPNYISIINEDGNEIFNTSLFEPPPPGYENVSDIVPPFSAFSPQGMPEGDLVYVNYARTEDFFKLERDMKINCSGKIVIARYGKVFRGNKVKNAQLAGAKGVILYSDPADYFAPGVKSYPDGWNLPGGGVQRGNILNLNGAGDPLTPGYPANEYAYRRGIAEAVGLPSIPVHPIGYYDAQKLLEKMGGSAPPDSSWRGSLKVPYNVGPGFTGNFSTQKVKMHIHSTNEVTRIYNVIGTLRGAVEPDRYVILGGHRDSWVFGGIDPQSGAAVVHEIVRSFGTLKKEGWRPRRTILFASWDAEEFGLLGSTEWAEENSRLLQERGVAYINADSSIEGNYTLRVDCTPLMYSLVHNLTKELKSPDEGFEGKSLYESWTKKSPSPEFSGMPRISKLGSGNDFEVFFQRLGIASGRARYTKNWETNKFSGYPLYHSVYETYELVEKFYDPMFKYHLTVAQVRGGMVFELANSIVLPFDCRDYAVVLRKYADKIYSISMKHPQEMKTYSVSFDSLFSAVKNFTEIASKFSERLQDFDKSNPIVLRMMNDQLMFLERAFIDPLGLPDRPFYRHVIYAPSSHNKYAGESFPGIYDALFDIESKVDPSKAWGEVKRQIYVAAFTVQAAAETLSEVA
Sequence of HSA (P02768 25-609): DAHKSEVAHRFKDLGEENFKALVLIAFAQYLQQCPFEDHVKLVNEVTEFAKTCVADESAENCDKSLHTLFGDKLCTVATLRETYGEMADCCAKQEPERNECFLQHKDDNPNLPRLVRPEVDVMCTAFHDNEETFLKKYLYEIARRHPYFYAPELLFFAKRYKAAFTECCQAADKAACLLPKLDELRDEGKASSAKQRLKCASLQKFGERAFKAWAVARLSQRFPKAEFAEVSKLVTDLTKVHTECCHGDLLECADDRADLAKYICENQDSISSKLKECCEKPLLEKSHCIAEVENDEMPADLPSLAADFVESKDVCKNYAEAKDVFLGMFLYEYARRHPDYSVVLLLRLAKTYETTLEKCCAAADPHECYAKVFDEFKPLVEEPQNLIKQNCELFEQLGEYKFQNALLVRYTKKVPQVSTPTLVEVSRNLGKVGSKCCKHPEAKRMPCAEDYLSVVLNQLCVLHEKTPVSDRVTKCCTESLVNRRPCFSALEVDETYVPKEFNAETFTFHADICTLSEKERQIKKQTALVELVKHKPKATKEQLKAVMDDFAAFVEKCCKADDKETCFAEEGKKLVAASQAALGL
T1 sequence (P02768 25-609): as above

Molecule	Lit. HSA binding (HSA) [%]	Log K HSA (HSA)	logP(o/w) [4]	also measured
Nc1ccccc1 [Aniline]	14.06	−0.7912	–	–
OCc1ccccc1 [Benzyl alcohol]	13.15	−0.8248	–	–
COc1ccc(Cl)cc1C(=O)NCCc1ccc(S(=O)(=O)NC(=O)NC2CCCCC2)cc1 [Glibenclamide]	99.00	1.695	–	–
Oc1ccccc1 [Phenol]	20.69	−0.589	–	–
CC(C)(C)[Si](F)(c1ccc(C(=O)N[C@H](CC(=O)N[C@H](CCCCNC(=O)CCC(=O)NCCC[C@@H](NC(=O)CC[C@H](NC(=O)N[C@@H](CCC(=O)O)C(=O)O)C(=O)O)C(=O)O)C(=O)O)C(=O)N[C@H](CCCCNC(=O)CCC(=O)NCCC[C@@H](NC(=O)CC[C@H](NC(=O)N[C@@H](CCC(=O)O)C(=O)O)C(=O)O)C(=O)O)C(=O)O)cc1)C(C)(C)C [SiFA-PSMA ligand 06]	–	–	–	logD7.4 [1]: −3.77 ± 0.04; Internalization (LNCaP cells): 270.03 ± 16.10%; Binding to HSA [2]: ≥98.9%; IC50 (PSMA [3]): 7.4 ± 1.9 nM
O=C(O)CC[C@H](NC(=O)N[C@@H](CCCCNC(=O)[C@H](Cc1ccc2ccccc2c1)NC(=O)[C@H]1CC[C@H](CNC(=O)CN2CCN(CC(=O)O)CCN(CC(=O)O)CCN(CC(=O)O)CC2)CC1)C(=O)O)C(=O)O [[^68Ga]PSMA-617, PSMA-617, metal not drawn]	–	–	−4.30 ± 0.10	–
O=C(O)CC[C@H](NC(=O)N[C@@H](CCCCNC(=O)c1ccc([18F])nc1)C(=O)O)C(=O)O [[^natF/^18F]DCFPyI, DCFPyI]	–	–	−3.4	–
O=C([O-])CN(CCN(CC(=O)[O-])Cc1cc(CCC(=O)NCCCCCC(=O)NCCCC[C@H](NC(=O)N[C@@H](CCC(=O)O)C(=O)O)C(=O)O)ccc1[O-])Cc1cc(CCC(=O)O)ccc1[O-].[68Ga+3].[OH3+] [[^natGa/^68Ga]PSMA-11, PSMA-11]	–	–	−4.1 ± 0.1	IC50 (PSMA [5]): 6.1 ± 0.8 nM; Internalization (1 h) (PSMA [6]): 91.1 ± 1.7
PSMA I&T [[^natGa/^68Ga]PSMA I&T]	–	–	−4.3 ± 0.3	IC50 (PSMA [5]): 9.3 ± 3.3 nM; Internalization (1 h) (PSMA [6]): 59.2 ± 1.7
PSMA-1007 [[^natF/^18F]PSMA-1007]	–	–	−1.6	IC50 (PSMA [5]): 4.2 ± 0.5 nM
SiFA-Asn(AcNH-β-Glc)-PEG-Tyr^3-octreotate	–	–	–	log P(ow) [7]: 0.96
SiFA-Asn(AcNH-β-Glc)-Tyr^3-octreotate	–	–	–	log P(ow) [7]: 1.23
